This note sets out measurements from US20100190794A1, “Herbicidally Active Composition” (BASF SE, priority 2007, published 2010).

Each structure is given as a SMILES string.

Test in all cases: greenhouse test, pre-emergence treatment
In assay [1] the test system is SETLU. The class given is in vivo, Setaria glauca. To be noted: for Herbicidal action in % after 20 days against SETLU: Use Example 16. The source says: (§1) The culture containers used were plastic pots containing loamy sand with approximately 3.0% of humus as substrate. The seeds of the test plants were sown separately for each species.
(§2) For the pre-emergence treatment, the active compounds, suspended or emulsified in water, were applied directly after sowing by means of finely distributing nozzles. The containers were irrigated gently to promote germination and growth and subsequently covered with transparent plastic hoods until the plants had rooted. This cover caused uniform germination of the test plants unless this was adversely affected by the active compounds.
(§3) Depending on the species, the plants were kept at 10-25° C. and 20-35° C., respectively. The test period extended over 2 to 4 weeks. During this time, the plants were tended and their response to the individual treatments was evaluated.
(§4) Evaluation was carried out using a scale from 0 to 100. 100 means no emergence of the plants, or complete destruction of at least the above-ground parts, and 0 means no damage or normal course of growth. Good herbicidal activity is given at values of at least 70, and very good herbicidal activity is given at values of at least 85.
(§5) The respective stated components A and B, and if appropriate, C were formulated as a 5% by weight or 10% by weight strength emulsion concentrate or a commercially available formulation of component B was used and, with addition of the amount of solvent system, introduced into the spray liquor used for applying the active compound. In the examples, the solvent used was water.
(§6) The test period extended over 20 or 21 days. During this time, the plants were tended, and their reactions to the treatment with active compound was monitored.
(§7) What was evaluated was the damage by the chemical compositions using a scale of from 0 to 100%, in comparison to the untreated control plants. 0 means no damage, and 100 means complete destruction of the plants.
(§8) In the examples below, using the method of S. R. Colby (1967) “Calculating synergistic and antagonistic responses of herbicide combinations”, Weeds 15, p. 22 ff., the value E, which is expected if the activity of the individual active compounds is only additive, was calculated.
(§9) where X=percent activity using active compound A at an application rate a; Y=percent activity using active compound B at an application rate b; E=expected activity (in %) by A+B at application rates a+b.
(§10) If the value found in experiments is higher than the value E calculated according to Colby, a synergistic effect is present.

The subject of assay [2] is BRAPL. The format is in vivo, Brachiaria plantaginea.
Description: as §1, §2, §3, §4, §5, §6, §7, §8, §9, §10

Assay [3] deals with SETFA. The class given is in vivo, Setaria faberi. Particulars: Use Example 19.
Description: as §1, §2, §3, §4, §5, §6, §7, §8, §9, §10

Assay [4] concerns SOLNI. The class given is in vivo, Solanum nigrum L. Particulars: Use Example 19.
Description: as §1, §2, §3, §4, §5, §6, §7, §8, §9, §10

The test system of assay [5] is DIGSA. The format is in vivo, Digitaria sanguinalis.
Description: as §1, §2, §3, §4, §5, §6, §7, §8, §9, §10

In assay [6] the test system is ALOMY. The class given is in vivo, Alopecurus myosuroides.
Description: as §1, §2, §3, §4, §5, §6, §7, §8, §9, §10

The subject of assay [7] is POAAN. The class given is in vivo, Poa annua. To be noted: 25 g/ha a.s., Use Example 7.
Description: as §1, §2, §3, §4, §5, §6, §7, §8, §9, §10

Assay [8] concerns LAMPU. The class given is in vivo, Lamium purpureum. To be noted: 25 g/ha a.s., Use Example 20.
Description: as §1, §2, §3, §4, §5, §6, §7, §8, §9, §10

Assay [9] relates to PHACA. The class given is in vivo, Phalaris canariensis.
Description: as §1, §2, §3, §4, §5, §6, §7, §8, §9, §10

In assay [10] the test system is APESV. The format is in vivo, Apera spica-venti. To be noted: 25 g/ha a.s., Use Example 20.
Description: as §1, §2, §3, §4, §5, §6, §7, §8, §9, §10

The test system of assay [11] is ECHCG. The class given is in vivo, Echinochloa crus-galli. To be noted: 1000 g/ha a.s., Use Example 2.
Description: as §1, §2, §3, §4, §5, §6, §7, §8, §9, §10

The subject of assay [12] is MATIN. The format is in vivo, Matricaria inodora. Particulars: 1000 g/ha a.s., Use Example 2.
Description: as §1, §2, §3, §4, §5, §6, §7, §8, §9, §10

For assay [13], the system named is STEME. The format is in vivo, Stellaria media. To be noted: 1000 g/ha a.s., Use Example 2.
Description: as §1, §2, §3, §4, §5, §6, §7, §8, §9, §10

Assay [14] concerns CCHEC. The format is in vivo, Cenchrus echinatus. To be noted: Use Example 16.
Description: as §1, §2, §3, §4, §5, §6, §7, §8, §9, §10

Assay [15] deals with LOLMU. The format is in vivo, Lolium multiflorum. Particulars: Use Example 1.
Description: as §1, §2, §3, §4, §5, §6, §7, §8, §9, §10

For `CS(=O)(=O)c1cc(C(F)(F)F)ccc1C(=O)c1cnoc1C1CC1` [Isoxaflutol, Isoxaflutole], the “Herbicidal action in % after 21 days against SETLU” value in assay [1] (25 g/ha a.s., Use Example 9) was 75%. For the same molecule, the “Herbicidal action in % after 20 days against BRAPL” value was 75% in [2] (13 g/ha a.s., Use Example 19) and 80% in [2] (25 g/ha a.s., Use Example 19). Besides, in [2] (25 g/ha a.s., Use Example 9), the “Herbicidal action in % after 21 days against BRAPL” value came to 90%. In addition, the results for the “Herbicidal action in % after 20 days against SETFA” value in [3] (13 g/ha a.s.) and in assay [3] (25 g/ha a.s.) were 40% and 55%, respectively. The “Herbicidal action in % after 20 days against SOLNI” value came out at 85% in assay [4] (13 g/ha a.s.) and 98% in [4] (25 g/ha a.s.). Further, the “Herbicidal action in % after 20 days against DIGSA” value in [5] (13 g/ha a.s., Use Example 19) is reported as 75%; in assay [5] (25 g/ha a.s., Use Example 19), 95%. Further, in [5] (25 g/ha a.s., Use Example 9), the “Herbicidal action in % after 21 days against DIGSA” value was found to be 98%.

Turning to `O=C(Nc1ccc(F)cc1)c1cccc(Oc2cccc(C(F)(F)F)c2)n1` [Picolinafen, reference compound], the “Herbicidal action in % after 20 days against ALOMY” value in assay [6] (25 g/ha a.s., Use Example 7) amounted to 0%. In addition, the “Herbicidal action in % after 20 days against POAAN” value in assay [7] was 0%. Moreover, in [8], the “Herbicidal action in % after 20 days against LAMPU” value was 0%. The “Herbicidal action in % after 20 days against PHACA” value in assay [9] (25 g/ha a.s., Use Example 20) was determined as 0%. Besides, in assay [10], the “Herbicidal action in % after 20 days against APESV” value is given as 60%.

On to `CCCN(CCC)C(=O)SCc1ccccc1` [Prosulfocarb, reference compound], for which the “Herbicidal action in % after 20 days against ALOMY” value in assay [6] (1000 g/ha a.s., Use Example 2) came to 70%. Moreover, the “Herbicidal action in % after 20 days against ECHCG” value in assay [11] was 40%. The “Herbicidal action in % after 20 days against MATIN” value in assay [12] was determined as 30%. Besides, the “Herbicidal action in % after 20 days against STEME” value in [13] is on record as 80%.

Consider `O=C(O)c1c(Cl)ccc2cc(Cl)cnc12` [Quinclorac], for which the “Herbicidal action in % after 20 days against SETLU” value in [1] (62.5 g/ha a.s.) was 50%; in assay [1] (125 g/ha a.s.), 85%. Also, the “Herbicidal action in % after 20 days against BRAPL” value turned out to be 0% in [2] (62.5 g/ha a.s., Use Example 16) and 25% in assay [2] (125 g/ha a.s., Use Example 16). Also, the “Herbicidal action in % after 20 days against CCHEC” value in [14] (62.5 g/ha a.s.) turned out to be 0%; in assay [14] (125 g/ha a.s.), 20%.

Turning to `CCNc1nc(Cl)nc(NC(C)(C)C)n1` [Terbuthylazine, reference compound], the “Herbicidal action in % after 20 days against BRAPL” value in assay [2] (250 g/ha a.s., Use Example 5) came out at 15%. In assay [5] (250 g/ha a.s., Use Example 5), the “Herbicidal action in % after 20 days against DIGSA” value amounted to 35%.

As for `CC(C)N(C(=O)SCC(Cl)=C(Cl)Cl)C(C)C` [Triallate, reference compound], the entries for the “Herbicidal action in % after 20 days against LOLMU” value in assay [15] (300 g/ha a.s.) and in [15] (600 g/ha a.s.) were 60% and 80%, respectively. The “Herbicidal action in % after 20 days against PHACA” value in assay [9] (300 g/ha a.s., Use Example 1) amounted to 40%; in assay [9] (600 g/ha a.s., Use Example 1) it was 50%.
